In patent US20020045780A1, “Biologically active spermidine analogues, pharmaceutical compositions and methods of treatment” (priority 1997, published 2002):
Counter-ions that a name gives are not always drawn. Like-named read-outs stand apart in the source and are kept apart here.

Tests used:
[1] = tested on: polyamine transport apparatus; test: Competitive uptake determination: inhibition of [3H]spermidine transport into L1210 cells; assay type: cell-based, murine; settings: analogue inhibition of spermidine transport
Protocol: The ability of the norspermidines, spermidines, homospermidines, 4,5- and 5,5-triamines to compete with radiolabeled SPD for uptake was evaluated (Table 1). The general trend is that the terminally alkylated triamines have higher Ki values than the unalkylated triamines and are thus less easily taken up by the cell. […] This is not completely true with the norspermidines and the 5,5 triamines. The relationship holds with methyl and ethyl but not for the propyl of the latter two systems. Finally, the number of methylenes separating the amines plays a role in determining polyamine uptake properties. In general the effectiveness with which the analogues compete for uptake is spermidines≈homospermidines>4,5 triamines>5,5 triamines>norspermidine.
The polyamine derivatives were studied for their ability to compete with [^3H]-SPD for uptake into L1210 cells [Bergeron et al, J. Med. Chem., Vol. 37, supra]. Lineweaver-Burk plots indicated a simple competitive inhibition with respect to SPD.

[2] = tested on: ornithine decarboxylase (ODC); test: ODC activity in treated L1210 cells; assay type: cell-based, murine; settings: L1210, 1 μM at 4 hours
Protocol: (§1) On the basis of these studies, it was elected to evaluate the impact of the triamines on ODC and AdoMetDC at 4 and 6 hours, respectively.
(§2) ODC and AdoMetDC activities were determined as ^14CO2 released from [^14C]-carboxyl-labeled L-ornithine [Seely et al, “Ornithine Decarboxylase (Mouse Kidney),” Methods Enzymol., Vol. 94, pages 158-161 (1983)] or S-adenosyl-L-methionine [Pegg et al, “S-Adenosylmethionine Decarboxylase (Rat Liver),” Methods Enzymol., Vol. 94, pages 234-239 (1983)], respectively. Included in each assay were untreated L1210 cells as controls, as well as cells treated with DEHSPM, a drug having a known reproducible effect on each enzyme, as positive controls.

L1210 cells [3] = test: Metabolic transformation of polyamine analogues by L1210 cells; assay type: in vitro ADME, murine; settings: 48 hours
Protocol: (§3) The cells were washed twice with cold RPMI-1640, and the pellet was treated with 0.6 N HClO4 (1 ml/10^7 cells). Polyamine contents of the perchloric acid extracts were quantitated by HPLC of the DANSYL derivatives [Bergeron et al, J. Med. Chem., Vol. 37, supra].

L1210 cells [4] = test: L1210 growth inhibition, IC50 determination; assay type: cell-based, murine
Protocol: Murine L1210 leukemia cells (ATCC CCL 219) were maintained in logarithmic growth in RPMI-1640 medium containing 10% fetal calf serum or a semi-synthetic equivalent, NuSerum, 2% HEPES-MOPS buffer and 1 mM aminoguanidine.

L1210 cells [5] = test: Polyamine pool analysis in L1210 cells; assay type: cell-based, murine; settings: for activity at 100 µM / activity at 500 µM / activity at 2 µM / activity at 10 µM / activity at 15 µM / activity at 75 µM: Mus musculus, L1210, 48 h, % of untreated control; for Analogue: intracellular amount, 48 hours
Protocol: The following guidelines were adopted for studying the impact of the analogues on polyamine pools (Table 2). The measurements were made after a 48-hour exposure to the analogue, and two different concentrations of analogue were evaluated in each case.
as §3

[6] = tested on: S-adenosylmethionine decarboxylase (AdoMetDC); test: AdoMetDC activity in treated L1210 cells; assay type: cell-based, murine; settings: L1210, 1 μM at 6 hours
Protocol: as §1, §2

[7] = tested on: spermidine/spermine acetyltransferase (SSAT); test: SSAT activity in treated L1210 cells; assay type: cell-based, murine; settings: L1210, 10 μM at 48 hours (triamine analogues)
From the text: Spermidine/spermine N^1-acetyltransferase activity was based on quantitation of [^14C]-N^1-acetylspermidine formed by acetylation of SPD with [^14C] acetyl coenzyme A according to the method of Libby et al [Biochem. Pharmacol., Vol. 38, supra]. Cells treated with DENSPM were positive controls.

[8] = Mus musculus, L1210, 48 h, L1210, 48 hour exposure, read-out: IC50 48 hour
[9] = Mus musculus, L1210, 96 h, L1210, 96 hour exposure, read-out: IC50 96 hour

Compound	IC50 (L1210 cells [4]; [8])	IC50 (L1210 cells [4]; [9])	Analogue (L1210 cells [5]; 100 μM)	Analogue (L1210 cells [5]; 500 μM)	N-Monodealkylation (result in words) (L1210 cells [3]; 100 μM analogue)	Parent drug as % of total drug in the cell (L1210 cells [3]; 100 μM analogue)	Parent drug in L1210 cells (L1210 cells [3]; 100 μM analogue)	Ki [1]	ODC activity, percent of untreated control [2]	activity at 100 µM (L1210 cells [5]; 100 μM, read-out: Put)	activity at 100 µM (L1210 cells [5]; 100 μM, read-out: Spd)	activity at 100 µM (L1210 cells [5]; 100 μM, read-out: Spm)	activity at 500 µM (L1210 cells [5]; 500 μM, read-out: Put)	activity at 500 µM (L1210 cells [5]; 500 μM, read-out: Spd)	activity at 500 µM (L1210 cells [5]; 500 μM, read-out: Spm)	AdoMetDC activity, percent of untreated control [6]	SSAT activity, percent of untreated control [7]	also measured
CCNCCCNCCCNCC [DENSPD, N^1,N^7-Diethylnorspermidine Trihydrochloride]	> 100 µM	10 µM	3.67 nmol/10^6 cells	3.77 nmol/10^6 cells	–	–	–	250 µM	80% of untreated control	0%	17%	74%	0%	6 to 15%	< 50%	45% of untreated control	780% of untreated control	Parent drug as % of total drug in the cell (L1210 cells [3]; 500 μM analogue): 90.7%; Parent drug in L1210 cells (L1210 cells [3]; 500 μM analogue): 3761 pmols/10^6
CNCCCCCNCCCCCNC [DM(5,5), 2,8,14-Triazapentadecane Trihydrochloride]	15 µM	0.4 µM	–	–	–	–	–	133 µM	105% of untreated control	–	–	–	–	–	–	97% of untreated control	90% of untreated control	N-Monodealkylation (result in words) (L1210 cells [3]; 15 μM analogue): no N-demethylation; Parent drug as % of total drug in the cell (L1210 cells [3]; 15 μM analogue): 100%; Parent drug in L1210 cells (L1210 cells [3]; 15 μM analogue): 2560 pmols/10^6; activity at 15 µM (L1210 cells [5]; 15 μM, read-out: Put): 0%; activity at 15 µM (L1210 cells [5]; 15 μM, read-out: Spd): 33%; activity at 15 µM (L1210 cells [5]; 15 μM, read-out: Spm): 115%; activity at 75 µM (L1210 cells [5]; 75 μM, read-out: Put): 0%; activity at 75 µM (L1210 cells [5]; 75 μM, read-out: Spd): 20%; activity at 75 µM (L1210 cells [5]; 75 μM, read-out: Spm): 101%; Analogue (L1210 cells [5]; 15 μM): 2.56 nmol/10^6 cells; Analogue (L1210 cells [5]; 75 μM): 3.61 nmol/10^6 cells
CNCCCCNCCCNC [DMSPD, N^1,N^8-Dimethylspermidine Trihydrochloride]	> 100 µM	1.5 to 1.8 µM	4.96 nmol/10^6 cells	4.89 nmol/10^6 cells	no N-demethylation	100%	5000 pmols/10^6	5.1 µM	–	0%	5%	58%	0%	0%	54%	68% of untreated control	270% of untreated control	ODC activity, percent of untreated control ([2]; Trihydrochloride): 22% of untreated control
CCCNCCCCCNCCCCNCCC [DP(4,5), 4,9,15-Triazaoctadecane Trihydrochloride]	~100 µM	< 2 µM	1.40 nmol/10^6 cells	2.42 nmol/10^6 cells	–	69.7%	1325 pmols/10^6	75 µM	83% of untreated control	0%	40%	119%	0%	31%	121%	86% of untreated control	80% of untreated control	Elaboration to tetraamine (result in words) (L1210 cells [3]; 100 μM analogue): no elaboration of N-Monoalkyl [5,4]; IC50 (L1210 cells [4]; L1210, 96 hour exposure, Trihydrochloride, read-out: IC50 96 hour): 1 to 1.4 µM

The next lines start with results.

IC50 (L1210 cells [4]; [8])	IC50 (L1210 cells [4]; [9])	Analogue (L1210 cells [5]; 100 μM)	Analogue (L1210 cells [5]; 500 μM)	N-Monodealkylation (result in words) (L1210 cells [3]; 100 μM analogue)	Parent drug as % of total drug in the cell (L1210 cells [3]; 100 μM analogue)	Parent drug in L1210 cells (L1210 cells [3]; 100 μM analogue)	Compound	Ki [1]	ODC activity, percent of untreated control [2]	activity at 100 µM (L1210 cells [5]; 100 μM, read-out: Put)	activity at 100 µM (L1210 cells [5]; 100 μM, read-out: Spd)	activity at 100 µM (L1210 cells [5]; 100 μM, read-out: Spm)	activity at 500 µM (L1210 cells [5]; 500 μM, read-out: Put)	activity at 500 µM (L1210 cells [5]; 500 μM, read-out: Spd)	activity at 500 µM (L1210 cells [5]; 500 μM, read-out: Spm)	AdoMetDC activity, percent of untreated control [6]	SSAT activity, percent of untreated control [7]	also measured
2 to 6 µM	0.11 to 0.12 µM	–	–	–	–	–	CNCCCCCNCCCCNC [DM(4,5), 2,7,13-Triazatetradecane Trihydrochloride]	21 µM	56% of untreated control	–	–	–	–	–	–	71% of untreated control	130% of untreated control	N-Monodealkylation (result in words) (L1210 cells [3]; 2 μM analogue): no N-demethylation; Parent drug as % of total drug in the cell (L1210 cells [3]; 2 μM analogue): 100%; Parent drug in L1210 cells (L1210 cells [3]; 2 μM analogue): 2790 pmols/10^6; IC50 (L1210 cells [4]; L1210, 48 hour exposure, Trihydrochloride, read-out: IC50 48 hour): 2 µM; activity at 2 µM (L1210 cells [5]; 2 μM, read-out: Put): 0%; activity at 2 µM (L1210 cells [5]; 2 μM, read-out: Spd): 33%; activity at 2 µM (L1210 cells [5]; 2 μM, read-out: Spm): 112%; activity at 10 µM (L1210 cells [5]; 10 μM, read-out: Put): 0%; activity at 10 µM (L1210 cells [5]; 10 μM, read-out: Spd): 18%; activity at 10 µM (L1210 cells [5]; 10 μM, read-out: Spm): 111%; Analogue (L1210 cells [5]; 2 μM): 2.79 nmol/10^6 cells; Analogue (L1210 cells [5]; 10 μM): 5.36 nmol/10^6 cells
> 100 µM	0.9 µM	5.51 nmol/10^6 cells	5.85 nmol/10^6 cells	no N-demethylation	100%	5500 pmols/10^6	CNCCCCNCCCCNC [DMHSPD, N^1,N^9-Dimethylhomospermidine Trihydrochloride]	5.5 µM	20% of untreated control	0%	3%	106%	0%	0%	106%	86% of untreated control	510% of untreated control	–
> 100 µM	3.5 to 6 µM	5.00 nmol/10^6 cells	5.51 nmol/10^6 cells	no N-demethylation	100%	5000 pmols/10^6	CNCCCNCCCNC [DMNSPD, N^1,N^7-Dimethylnorspermidine Trihydrochloride]	60 µM	17% of untreated control	0%	9%	58%	0%	6 to 15%	< 50%	41% of untreated control	250% of untreated control	–
